What was measured:
[1] = target: human CB2 receptor (CNR2) (Homo sapiens (Human), UniProt P34972); assay: Radioligand binding assay ([3H]-CP-55,940), membranes of HEK cells expressing human CNR2; details: 2.6 nM [3H]-CP-55,940, HEK cell membranes, 1 h at 30° C.
Experimental: (§1) Radioligand Binding Assay
(§2) The affinity of the compounds of the invention for cannabinoid receptors was determined using recommended amounts of membrane preparations (PerkinElmer) of human embryonic kidney (HEK) cells expressing the human CNR1 or CNR2 receptors in conjunction with 1.5 or 2.6 nM [3H]-CP-55,940 (Perkin Elmer) as radioligand, respectively. Binding was performed in binding buffer (50 mM Tris, 5 mM MgCl2, 2.5 mM EDTA, and 0.5% (wt/vol) fatty acid free BSA, pH 7.4 for CB1 receptor and 50 mM Tris, 5 mM MgCl2, 2.5 mM EGTA, and 0.1% (wt/vol) fatty acid free BSA, pH 7.4 for CB2 receptor) in a total volume of 0.2 mL for 1 h at 30° C. shaking. The reaction was terminated by rapid filtration through microfiltration plates coated with 0.5% polyethylenimine (UniFilter GF/B filter plate; Packard). Bound radioactivity was analyzed for Ki using nonlinear regression analysis (Activity Base, ID Business Solution, Limited), with the Kd values for [^3H]CP55,940 determined from saturation experiments.

[2] = target: human CB1 receptor (CNR1) (Homo sapiens (Human), UniProt P21554); assay: Radioligand binding assay ([3H]-CP-55,940), membranes of HEK cells expressing human CNR1; details: 1.5 nM [3H]-CP-55,940, HEK cell membranes, 1 h at 30° C.
Experimental: as §1, §2

human CB1 receptor (CNR1), sequence (P21554 whole entry): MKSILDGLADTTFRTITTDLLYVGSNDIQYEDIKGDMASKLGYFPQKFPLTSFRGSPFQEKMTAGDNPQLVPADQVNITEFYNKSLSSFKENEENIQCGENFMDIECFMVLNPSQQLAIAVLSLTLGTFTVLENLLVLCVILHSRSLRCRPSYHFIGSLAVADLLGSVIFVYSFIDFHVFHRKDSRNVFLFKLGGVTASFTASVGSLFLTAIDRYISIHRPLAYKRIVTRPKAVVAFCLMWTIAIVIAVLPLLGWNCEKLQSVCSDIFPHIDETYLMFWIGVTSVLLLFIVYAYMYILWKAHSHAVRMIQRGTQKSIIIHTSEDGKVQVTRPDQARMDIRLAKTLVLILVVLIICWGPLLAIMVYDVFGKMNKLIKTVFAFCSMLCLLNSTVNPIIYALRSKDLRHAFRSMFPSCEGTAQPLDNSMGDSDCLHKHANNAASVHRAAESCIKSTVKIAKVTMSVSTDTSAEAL
human CB2 receptor (CNR2), sequence (P34972 whole entry): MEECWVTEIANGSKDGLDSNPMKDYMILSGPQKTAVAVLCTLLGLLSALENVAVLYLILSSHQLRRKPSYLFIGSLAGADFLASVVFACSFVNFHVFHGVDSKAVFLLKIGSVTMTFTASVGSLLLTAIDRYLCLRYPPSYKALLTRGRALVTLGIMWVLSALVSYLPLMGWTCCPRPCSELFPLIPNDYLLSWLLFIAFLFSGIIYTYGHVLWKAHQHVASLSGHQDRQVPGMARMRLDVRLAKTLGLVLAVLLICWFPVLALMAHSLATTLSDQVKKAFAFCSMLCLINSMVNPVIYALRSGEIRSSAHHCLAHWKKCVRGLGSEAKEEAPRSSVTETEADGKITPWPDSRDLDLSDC

| Structure (SMILES) | Ki [1] [µM] | Ki [2] [µM] |
| --- | --- | --- |
| CC(C)(C)c1nc(N2CCC(F)(F)C2)c2nnn(Cc3ccccc3CCS(=O)(=O)F)c2n1 [Example 31, 2-[2-[[5-tert-Butyl-7-(3,3-difluoropyrrolidin-1-yl)triazolo[4,5-d]pyrimidin-3-yl]methyl]phenyl]ethanesulfonyl fluoride] | 0.027 | 1.36 |
| CC(C)(C)c1nc(N2CCC(F)(F)C2)c2nnn(Cc3ccccc3CCSSc3ccccn3)c2n1 [Example 32, 5-tert-Butyl-7-(3,3-difluoropyrrolidin-1-yl)-3-[[2-[2-(pyridin-2-yldisulfanyl)ethyl]phenyl]methyl]triazolo[4,5-d]pyrimidine] | 0.072 | 1.86 |
| CC(C)(C)c1nc(N2CCC(F)(F)C2)c2nnn(Cc3ccccc3CCSSCCN)c2n1 [Example 33, 2-[2-[2-[[5-tert-Butyl-7-(3,3-difluoropyrrolidin-1-yl)triazolo[4,5-d]pyrimidin-3-yl]methyl]phenyl]ethyldisulfanyl]ethanamine] | 0.063 | 0.588 |
| NCCSSCCc1ccccc1Cn1nnc2c(N3CCC(F)(F)C3)nc(C(F)(F)c3ccccc3)nc21 [Example 34, 2-[2-[2-[[5-[Difluoro(phenyl)methyl]-7-(3,3-difluoropyrrolidin-1-yl)triazolo[4,5-d]pyrimidin-3-yl]methyl]phenyl]ethyldisulfanyl]ethanamine] | 0.177 | 0.23 |
| CC(C)(C)c1nc(N2CCC(F)(F)C2)c2nnn(Cc3ccccc3CCSSCC(O)CO)c2n1 (centres unmarked) [Example 35, 3-[2-[2-[[5-tert-Butyl-7-(3,3-difluoropyrrolidin-1-yl)triazolo[4,5-d]pyrimidin-3-yl]methyl]phenyl]ethyldisulfanyl]propane-1,2-diol] | 0.005 | 0.135 |
| CC(C)(C)c1nc(N2CCC(F)(F)C2)c2nnn(Cc3ccccc3SSCCO)c2n1 [Example 36, 2-[[2-[[5-tert-Butyl-7-(3,3-difluoropyrrolidin-1-yl)triazolo[4,5-d]pyrimidin-3-yl]methyl]phenyl]disulfanyl]ethanol] | 0.095 | 0.56 |
| C#Cc1cccc(S(=O)(=O)F)c1Cn1nnc2c(N3CCC(F)(F)C3)nc(C(C)(C)C)nc21 [Example 38, 2-[[5-tert-Butyl-7-(3,3-difluoropyrrolidin-1-yl)triazolo[4,5-d]pyrimidin-3-yl]methyl]-3-ethynylbenzenesulfonyl fluoride] | 0.001 | 0.311 |

— patent publication US10457685B2, “[1,2,3]triazolo[4,5-D]pyrimidine derivatives with affinity for the type-2 cannabinoid receptor” (Hoffmann-La Roche Inc., priority 2016, dated 2019)
